Results: US8597904B2, “Pharmaceutical compositions for the treatment of conditions responsive to proteasome inhibition” (priority 2007, dated 2013)
Residues, ends and D or L forms follow the SMILES beside them. *: point of attachment. Cbz = O=C(OCc1ccccc1)*

Legend:
[1] = molecular target: T1, human erythrocyte 20S proteasomes, chymotrypsin-like activity (Homo sapiens, UniProt P28074); assay type: biochemical
T1 construct: which contains human erythrocyte 20S proteasomes; purchased BIOMOL International AK-740; host or cells: human erythrocytes
Procedure: A 100 μl reaction volume contained 2 μg/ml 20S proteasome, 100 μM substrate, and the desired concentrations of syringolin A in dilution buffer (50 mM Tris-HCl, pH 7.5, 25 mM KCl, 10 mM NaCl, 1 mM MgCl2). Epoximicin and MG132 (BIOMOL® International) were used as test inhibitors. The release of free AMC (7-amino-4-methylcoumarin) at 37° C. was monitored with an MWGt Sirius HT fluorescence microplate reader (BIO-TEK® Instruments) equipped with a 360 nm excitation and a 460 nm emission filter. Proteolytic activities were measured as the increase in relative fluorescence units (RFU) over time (FIG. 7A-C). […] The initial velocities (vi) were determined from the time derivative of these curves and plotted versus the corresponding inhibitor concentration ([I]). […] Using SigmaPlot, the data were fitted to the hyperbolic equation vi=c+[v0/(Ki′+[I])], where v0 is the velocity of the control. […] The rate of covalent inhibition (kassociation), which equals kobs/[I] was calculated over the range of inhibitor concentrations given in parentheses in FIG. 7D. Values in FIG. 7D represent means±standard deviation.
The fluorogenic substrates Suc-LLVY-AMC, Boc-LRR-AMC, and Z-LLE-AMC (BIOMOL® International) were used to monitor chymotrypsin-like, trypsin-like, and caspase-like activities, respectively. […] The release of free AMC (7-amino-4-methylcoumarin) at 37° C. was monitored with an MWGt Sirius HT fluorescence microplate reader (BIO-TEK® Instruments) equipped with a 360 nm excitation and a 460 nm emission filter.

Papaya latex papain = molecular target: T2, Papaya latex papain (Carica papaya, UniProt P00784); assay: SensoLyte Green Protease Fluorometric Assay, papain inhibition; assay type: biochemical; details: syringolin A up to 500 μM
T2 construct: Papaya latex papain (Sigma-Aldrich); purchased Sigma-Aldrich; host or cells: papaya latex
T2 sequence (P00784 134-345): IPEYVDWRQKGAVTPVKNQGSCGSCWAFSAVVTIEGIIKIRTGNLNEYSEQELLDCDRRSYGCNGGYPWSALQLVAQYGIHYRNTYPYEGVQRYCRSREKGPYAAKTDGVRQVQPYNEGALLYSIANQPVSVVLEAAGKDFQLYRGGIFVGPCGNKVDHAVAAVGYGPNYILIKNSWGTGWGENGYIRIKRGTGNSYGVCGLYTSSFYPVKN
Procedure: (§1) To test the specificity of syringolin A inhibition of proteasome activities, bovine pancreas trypsin (Pierce) and Papaya latex papain (Sigma-Aldrich) inhibition assays with syringolin A were performed with the SensoLyte™ Green Protease Fluorometric Assay Kit (AnaSpec., San Jose, Calif., USA) according to the instructions of the manufacturer. Reaction volumes of 100 μl contained an enzyme concentration of 200 ng/ml and various amounts of test inhibitors. Protease activity was monitored at 33° C. in a FluoroCount Microplate Fluorometer (FluoroCount, Packard, Canberra, Australia) using 485 nm excitation and a 550 nm emission filters.

bovine pancreas trypsin = molecular target: T3, bovine pancreas trypsin (Bos taurus, UniProt P00760); assay: SensoLyte Green Protease Fluorometric Assay, trypsin inhibition; assay type: biochemical; details: syringolin A up to 500 μM
T3 construct: bovine pancreas trypsin (Pierce); purchased Pierce; host or cells: bovine pancreas
T3 sequence (P00760 24-246): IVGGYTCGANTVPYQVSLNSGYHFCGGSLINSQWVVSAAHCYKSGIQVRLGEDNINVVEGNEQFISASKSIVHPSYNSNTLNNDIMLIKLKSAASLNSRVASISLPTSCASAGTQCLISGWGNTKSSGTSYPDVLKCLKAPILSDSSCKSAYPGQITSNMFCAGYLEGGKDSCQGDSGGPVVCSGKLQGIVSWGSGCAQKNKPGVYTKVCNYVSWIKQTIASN
Procedure: as §1

[2] = molecular target: T4, proteasome activity in SK-N-SH neuroblastoma cells (Homo sapiens, UniProt P28074); assay: Proteasome-Glo cell-based luminescent assay; details: 2 hours incubation
T4 construct: endogenous in cells; host or cells: SK-N-SH
T4 sequence (P28074 60-263): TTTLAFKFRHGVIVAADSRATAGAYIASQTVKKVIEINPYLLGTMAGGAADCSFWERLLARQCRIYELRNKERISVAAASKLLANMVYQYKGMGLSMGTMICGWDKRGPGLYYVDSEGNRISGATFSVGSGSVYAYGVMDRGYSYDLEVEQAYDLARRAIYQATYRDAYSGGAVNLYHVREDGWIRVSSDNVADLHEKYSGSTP
Procedure: Syringolin A was tested as a proteasome inhibitor in vivo in cultured mammalian cancer cells. Inhibition of proteasome activity in human SK-N-SH neuroblastoma cells was measured using the Proteasome-Glo™ cell-based luminescent assay (Promega) in solid white 96-well microtiter cell culture plates. Ten μl of syringolin A (at various concentrations) was added to each well containing SK-N-SH cells (plated at a concentration of 1.0×10^5 cells/ml in 90 μl well volumes 24 hours prior) and a negative control and media only control were included. Cells were incubated with 1-100 μM syringolin A for 2 hours or 24 hours, and then equilibrated to room temperature for 15 minutes before 100 μl of Proteasome-Glo reagent (containing bioluminescent substrate Suc-LLVY-aminoluciferin) was added to the cells. Luminescence (indicated as relative luminescence units [RLU]) was read after 15-30 minutes on a Dynex MLX Luminometer.
To trace the kinetics of proteasome inhibition in the presence of syringolin, the same experiment was performed, but in this case, 100 μl of Proteasome-Glo reagent was added to cells first, followed by the addition of syringolin A at various concentrations, and the proteasome activity was measured over time.
The cell culture-based proteasome inhibition assay was performed as previously described (Groll et al. 2008. Nature 452:755-758, which is incorporated herein by reference in its entirety). Briefly, wells of white-walled 96-well microtiter cell culture plates were seeded at a density of 1×10^4 cells/well (SK-N-SH) or 5×10^3 cells/well (SKOV3) in 90 μl. After 24 hours, 10 μl GlbA or SylA were added at increasing concentrations (0-100 μM) and incubated for 2 hours. […] Cell Death Differ 9:1017-1025; Meng, et al. 1999. PNAS 96:10403-10408, each of which is incorporated herein by reference in its entirety) were used as positive and negative controls, respectively. Microtiter plates were then equilibrated to room temperature for 15 min before adding 100 μl of proteasome Glo™ reagent (containing bioluminescent substrate Suc-LLVY-aminoluciferin) per well. Luminescence was measured on a Dynex MLX luminometer, according to the manufacturer's instructions (Promega).

[3] = test system: microtubule-associated protein 1 light chain 3 (LC3); assay: immunoblot of LC3 conversion (autophagy) in SK-N-SH cells; assay type: cell-based, human; details: compared to untreated control cells
Procedure: To verify whether autophagy is induced in GlbA-treated cells, levels of microtubule-associated protein 1 light chain 3 (LC3), a reliable marker of autophagosomes, were measured. […] Therefore, this characteristic conversion of LC3 can be used to monitor autophagic activity. SK-N-SH cells were treated with GlbA in the presence or absence of 3-MA, and cell lysates were probed with LC3.

SK-N-SH cells = assay: Cytox-Glo cytotoxicity assay; assay type: cell-based, human; details: light microscope, 48 hours
Procedure: Determination of potential cytotoxic effects by GlbA and/or […] was carried out by using the Cytox-Glo cytotoxicity assay, which measures “dead cell proteases” from cells that have lost membrane integrity. Briefly, cells were treated with a single concentration of compound for 48 hours in a final volume of 100 μl, after which 50 μl of AAF-Glo luminogenic peptide substrate (alanyl-alanyl-phenylalanyl-aminoluciferin) was added to each well and incubated for 15 min at room temperature. The luminescence was measured by a Dynex MLX luminometer to give a reading of cells with damaged membranes. Next, 50 μl of digitonin was added to each well and the samples incubated for 15 minutes at room temperature. Luminescence was measured a second time to determine total cell number. Controls included cells with vehicle only, media, and media with compound.
SK-N-SH cells were treated with 0.25 μM GlbA or 25 μM SylA and SKOV3 cells were treated with 1.0 μM GlbA or 25 μM SylA. As illustrated in FIGS. 16A and 16B, control cells (treated with DMSO and H2O representing GlbA and SylA controls, respectively) were viable and no cytotoxicity was detected.
To determine if autophagy plays a role in GlbA/SylA-induced cell death, levels of cytotoxicity in cells pre-treated with 3-methyladenine (3-MA), an established autophagy inhibitor, were measured using the assay described in Example 12.

[4] = test system: poly (ADP-ribose) polymerase (PARP); assay: Western blot of PARP cleavage in SK-N-SH cells; assay type: cell-based, human; details: Example 15, single agent
Procedure: The induction of an apoptotic response in cancer cells by the addition of syringolin A was verified by monitoring the cleavage of poly (ADP-ribose) polymerase (PARP), a common response during apoptosis. SK-N-SH cells were cultured in the presence or absence of 20 μM syringolin A for 0, 24 and 48 hours, and cell lysates were then generated as described in Example 4 and probed for the presence of PARP by Western blotting using rabbit polyclonal anti-PARP (#9542) (diluted 1:1000) and the HRP-linked anti-rabbit secondary antibody described in Example 4. The results were representative of four independent experiments. […] The treatment of cells for 48 hours further increased the levels of cleaved PARP, whereas noncleaved PARP disappeared. In a similar manner, syringolin A induced PARP cleavage in SKOV3 cells, but noncleaved PARP was still detected 48 hours after treatment (FIG. 5B).
The role of glidobactin A (GlbA) in apoptosis and its correlation with autophagy has not previously been examined. Therefore, in a series of experiments, cell lysates of SK-N-SH cells were treated with GlbA in the presence and absence of the autophagy inhibitor 3-methyladenine (3-MA) and probed for poly ADP-ribose polymerase (PARP). The cleavage of PARP produces a smaller 89 kDa fragment which is indicative of late apoptosis.

glidobactin A
proteasome chymotrypsin-like activity ([1]; 500-fold dilution of 10× concentrated HPLC peak): reduced proteasome activity to background levels

CC(C)C[C@@H](C=O)NC(=O)[C@H](CC(C)C)NC(=O)[C@H](CC(C)C)NC(=O)OCc1ccccc1 [MG-132, reference compound] (Cbz-Leu-Leu-Leu-aldehyde)
papain activity (Papaya latex papain): also inhibits cysteine proteases | mode of proteasome inhibition (reaction velocity over time) [1]: reversible | trypsin activity (bovine pancreas trypsin): trypsin inhibitor

C/C=C/C/C=C/CCC(=O)[C@H]1O[C@H]1C(N)=O [cerulenin, reference compound]
proteasome activity in cells [2]: does not significantly inhibit proteasome activity

Cn1cnc(N)c2ncnc1-2 [3-MA, 3-methyladenine, reference compound]
LC3-II amount / conversion of LC3 [3]: did not alter the conversion of LC3 | cell proliferation and killing, 3-MA control cells (SK-N-SH cells): suppresses SK-N-SH cell proliferation without killing cells | PARP cleavage [4]: had no effect on PARP cleavage
